Source: patent US10344017B2, “Pyrrolcarboxamide derivatives for the inhibition of ERK5” (CANCER RESEARCH TECHNOLOGY LIMITED, priority 2014, dated 2019)
pIC50: −log10 of the molar value. Read-outs that look alike come from different tables or passages of the source.

Biological target: T1, ERK5 (Homo sapiens, UniProt Q13164)
T1 construct: made in house
Test: ERK5 IMAP assay (fluorescence polarisation)
Type: biochemical
Description: The assay buffer was prepared using 0.01% Tween®-20 5× stock, supplied as part of IMAP™ FP Progressive Binding System Kit (Molecular Devices R7436) and diluted to 1× using miliQ H2O. 1 μL of a 1M DTT stock was added for every 1 mL of 1× assay buffer to give a final concentration of 1 mM DTT.
ERK5 was expressed and purified at CRT-DL by Leon Pang and Sue Young. Aliquots were stored at −80° C. The ERK5 working solution was used at a […] final dilution in assay buffer. […] For 1 plate, […] of ERK5 stock was added to 2262 μL of 1× assay buffer.
To prepare the IMAP™ binding solution for one plate 20.5 μL of IMAP™ binding reagent stock, 1476 μL of 1× binding buffer A (60%), and 984 μL of binding buffer B (40%) (IMAP™ FP Progressive screening express kit (Molecular Devices R8127) was added to 9819.5 μL of milliQ H2O.
1 μL of inhibitor (in 60:40 H2O/DMSO) or 60:40 H2O/DMSO (for controls and blanks) were dry-spotted into the relevant wells of a 384-well assay plate using the MATRIX PlateMate® Plus. 5 μL of ERK5 working solution was added to test and control wells, and 5 μL of 1× assay buffer added to blanks; 4 μL of ATP/substrate working solution was added to all wells using a Matrix multichannel pipette. The plate was sealed using DMSO resistant clear seal and incubated for 2 h at 37° C. 1 μL of the kinase reaction mixture from the first plate was dry spotted into a second 384-well assay plate using the MATRIX PlateMate® Plus. 9 μL of assay buffer was added, followed by 30 μL of IMAP™ binding solution using a multichannel pipette. The plate was incubated at RT in darkness for 2 h. The assay plate was then read on an Analyst HT plate reader (Molecular Devices) using the settings described below: […]

[1] = average (e.g. geometric mean) where more than one data point, read-out: ERK5 IC50

T1 sequence (Q13164 whole entry): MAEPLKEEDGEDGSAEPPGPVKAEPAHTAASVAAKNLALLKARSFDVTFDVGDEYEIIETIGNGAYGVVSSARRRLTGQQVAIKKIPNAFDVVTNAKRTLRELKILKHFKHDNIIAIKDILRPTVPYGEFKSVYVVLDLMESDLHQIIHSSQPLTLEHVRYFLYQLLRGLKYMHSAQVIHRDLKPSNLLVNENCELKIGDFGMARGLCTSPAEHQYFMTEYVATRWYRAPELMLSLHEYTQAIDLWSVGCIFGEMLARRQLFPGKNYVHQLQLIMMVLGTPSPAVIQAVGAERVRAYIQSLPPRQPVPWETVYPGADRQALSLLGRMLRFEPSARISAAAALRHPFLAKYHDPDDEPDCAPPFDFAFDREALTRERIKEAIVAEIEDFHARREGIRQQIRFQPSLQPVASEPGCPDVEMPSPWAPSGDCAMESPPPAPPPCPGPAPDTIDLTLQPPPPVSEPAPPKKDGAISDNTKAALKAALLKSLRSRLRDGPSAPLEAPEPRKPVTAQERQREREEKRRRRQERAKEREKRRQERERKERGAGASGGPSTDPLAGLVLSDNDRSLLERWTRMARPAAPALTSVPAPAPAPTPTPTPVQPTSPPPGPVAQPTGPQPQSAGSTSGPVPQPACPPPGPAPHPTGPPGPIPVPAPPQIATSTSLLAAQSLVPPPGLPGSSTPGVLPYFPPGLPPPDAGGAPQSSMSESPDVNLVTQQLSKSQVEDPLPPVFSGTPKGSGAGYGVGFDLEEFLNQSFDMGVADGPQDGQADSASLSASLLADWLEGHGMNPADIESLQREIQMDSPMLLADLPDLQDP

For `CN(c1ncc(NC(=O)c2cc(C(=O)c3c(Cl)ccc(Cl)c3F)c[nH]2)cn1)C1CCNCC1` [Example 106, 4-(3,6-Dichloro-2-fluorobenzoyl)-N-(2-(methyl(piperidin-4-yl)amino)pyrimidin-5-yl)-1H-pyrrole-2-carboxamide], the pIC50 [1] was 7.70.

Work on `COc1ccc(Cl)c(C(=O)c2c[nH]c(C(=O)Nc3ccc(CN4CCOCC4)nc3)c2)c1F` [Example 116, 4-(6-Chloro-2-fluoro-3-methoxybenzoyl)-N-(6-(morpholinomethyl)pyridin-3-yl)-1H-pyrrole-2-carboxamide] yielded a pIC50 [1] of 7.66.

`COc1ccc(Cl)c(C(=O)c2c[nH]c(C(=O)Nc3ccc(CC4CCNCC4)nc3)c2)c1F` [Example 117, 4-(6-Chloro-2-fluoro-3-methoxybenzoyl)-N-(6-(piperidin-4-ylmethyl)pyridin-3-yl)-1H-pyrrole-2-carboxamide] showed a pIC50 [1] of 8.04.

`Cc1ccc(NC(=O)c2cc(C(=O)c3c(F)cccc3Cl)c[nH]2)c[n+]1[O-]` [Example 118, 5-(4-(2-Chloro-6-fluorobenzoyl)-1H-pyrrole-2-carboxamido)-2-methylpyridine 1-oxide] showed a pIC50 [1] of 5.88.

Compound `O=C(Nc1ccc(CO)nc1)c1cc(C(=O)c2c(F)cccc2Cl)c[nH]1` [Example 119, 4-(2-chloro-6-fluorobenzoyl)-N-(6-(hydroxymethyl)pyridin-3-yl)-1H-pyrrole-2-carboxamide] has a pIC50 [1] of 6.28.

In the case of `O=C(Nc1ccc(CO)nc1)c1cc(C(=O)c2c(Cl)ccc(Cl)c2F)c[nH]1` [Example 120, 4-(3,6-dichloro-2-fluorobenzoyl)-N-(6-(hydroxymethyl)pyridin-3-yl)-1H-pyrrole-2-carboxamide], the pIC50 [1] was 6.70.

`O=C(Nc1ccncc1)c1cc(C(=O)c2c(F)cccc2F)c[nH]1` [Example 121, 4-(2,6-Difluorobenzoyl)-N-(pyridin-4-yl)-1H-pyrrole-2-carboxamide] gave a pIC50 of 6.05.

Work on `O=C(NC1CCNC1)c1cc(C(=O)c2c(F)cccc2F)c[nH]1` (stereo not shown) [Example 125, 4-(2,6-Difluorobenzoyl)-N-(pyrrolidin-3-yl)-1H-pyrrole-2-carboxamide] yielded a pIC50 [1] of 4.51.

`O=C(Nc1cc[n+]([O-])cc1)c1cc(C(=O)c2c(F)cccc2F)c[nH]1` [Example 127, 4-(4-(2,6-Difluorobenzoyl)-1H-pyrrole-2-carboxamido)pyridine 1-oxide] was tested, and the pIC50 [1] was 4.94.

`O=C(Nc1ccc[n+]([O-])c1)c1cc(C(=O)c2c(F)cccc2F)c[nH]1` [Example 128, 3-(4-(2,6-Difluorobenzoyl)-1H-pyrrole-2-carboxamido)pyridine 1-oxide] gave a pIC50 [1] of 4.86.

Work on `O=C(Nc1ccncn1)c1cc(C(=O)c2c(F)cccc2F)c[nH]1` [Example 130, 4-(2,6-Difluorobenzoyl)-N-(pyrimidin-4-yl)-1H-pyrrole-2-carboxamide] yielded a pIC50 [1] of 5.67.

`O=C(Nc1ccncn1)c1cc(C(=O)c2cccc(Cl)c2Cl)c[nH]1` [Example 131, 4-(2,3-Dichlorobenzoyl)-N-(pyrimidin-4-yl)-1H-pyrrole-2-carboxamide] showed a pIC50 [1] of 5.58.

With `O=C(Nc1ccncn1)c1cc(C(=O)c2c(F)cccc2Cl)c[nH]1` [Example 132, 4-(2-Chloro-6-fluorobenzoyl)-N-(pyrimidin-4-yl)-1H-pyrrole-2-carboxamide] the pIC50 [1] was 5.94.

With `O=C(Nc1ccncn1)c1cc(C(=O)c2c(F)cccc2Br)c[nH]1` [Example 133, 4-(2-Bromo-6-fluorobenzoyl)-N-(pyrimidin-4-yl)-1H-pyrrole-2-carboxamide] the pIC50 [1] was 5.75.

`Cc1cc(NC(=O)c2cc(C(=O)c3c(F)cccc3Cl)c[nH]2)cc(C)n1` [Example 134, 4-(2-Chloro-6-fluorobenzoyl)-N-(2,6-dimethylpyridin-4-yl)-1H-pyrrole-2-carboxamide] was tested, and the pIC50 [1] was 6.43.

`Cc1cc(NC(=O)c2cc(C(=O)c3c(F)cccc3Br)c[nH]2)cc(C)n1` [Example 135, 4-(2-Bromo-6-fluorobenzoyl)-N-(2,6-dimethylpyridin-4-yl)-1H-pyrrole-2-carboxamide] showed a pIC50 [1] of 6.18.

Compound `Cc1cc(NC(=O)c2cc(C(=O)c3c(F)cccc3Cl)c[nH]2)ccn1` [Example 136, 4-(2-Chloro-6-fluorobenzoyl)-N-(2-methylpyridin-4-yl)-1H-pyrrole-2-carboxamide] has a pIC50 [1] of 6.40.

`Cc1cc(NC(=O)c2cc(C(=O)c3c(F)cccc3Br)c[nH]2)ccn1` [Example 137, 4-(2-Bromo-6-fluorobenzoyl)-N-(2-methylpyridin-4-yl)-1H-pyrrole-2-carboxamide] showed a pIC50 [1] of 5.97.

`O=C(Nc1ccnnc1)c1cc(C(=O)c2c(F)cccc2Cl)c[nH]1` [Example 138, 4-(2-Chloro-6-fluorobenzoyl)-N-(pyridazin-4-yl)-1H-pyrrole-2-carboxamide] gave a pIC50 [1] of 6.36.

Work on `O=C(Nc1ccnnc1)c1cc(C(=O)c2c(F)cccc2Br)c[nH]1` [Example 139, 4-(2-Bromo-6-fluorobenzoyl)-N-(pyridazin-4-yl)-1H-pyrrole-2-carboxamide] yielded a pIC50 [1] of 6.09.

For `O=C(Nc1ccnc(Cl)n1)c1cc(C(=O)c2c(F)cccc2Cl)c[nH]1` [Example 140, 4-(2-Chloro-6-fluorobenzoyl)-N-(2-chloropyrimidin-4-yl)-1H-pyrrole-2-carboxamide], the pIC50 [1] was 5.36.

`O=C(Nc1ccnc(Cl)n1)c1cc(C(=O)c2c(F)cccc2Br)c[nH]1` [Example 141, 4-(2-Bromo-6-fluorobenzoyl)-N-(2-chloropyrimidin-4-yl)-1H-pyrrole-2-carboxamide] was tested, and the pIC50 [1] was 5.11.

For `Cc1cc(NC(=O)c2cc(C(=O)c3c(F)cccc3Cl)c[nH]2)nc(C)n1` [Example 142, 4-(2-Chloro-6-fluorobenzoyl)-N-(2,6-dimethylpyrimidin-4-yl)-1H-pyrrole-2-carboxamide], the pIC50 [1] was 5.38.

For `Cc1cc(NC(=O)c2cc(C(=O)c3c(F)cccc3Br)c[nH]2)nc(C)n1` [Example 143, 4-(2-Bromo-6-fluorobenzoyl)-N-(2,6-dimethylpyrimidin-4-yl)-1H-pyrrole-2-carboxamide], the pIC50 [1] was 5.31.

In the case of `O=C(Nc1cncnc1)c1cc(C(=O)c2c(F)cccc2Br)c[nH]1` [Example 145, 4-(2-Bromo-6-fluorobenzoyl)-N-(pyrimidin-5-yl)-1H-pyrrole-2-carboxamide], the pIC50 [1] was 6.18.

Compound `O=C(Nc1cc[nH]c(=O)n1)c1cc(C(=O)c2c(F)cccc2Cl)c[nH]1` [Example 146, 4-(2-Chloro-6-fluorobenzoyl)-N-(2-oxo-1,2-dihydropyrimidin-4-yl)-1H-pyrrole-2-carboxamide] has a pIC50 [1] of 5.53.

In the case of `O=C(Nc1cc[nH]c(=O)n1)c1cc(C(=O)c2c(F)cccc2Br)c[nH]1` [Example 147, 4-(2-Bromo-6-fluorobenzoyl)-N-(2-oxo-1,2-dihydropyrimidin-4-yl)-1H-pyrrole-2-carboxamide], the pIC50 [1] was 4.47.

Compound `Cc1ncccc1NC(=O)c1cc(C(=O)c2c(F)cccc2Cl)c[nH]1` [Example 148, 4-(2-Chloro-6-fluorobenzoyl)-N-(2-methylpyridin-3-yl)-1H-pyrrole-2-carboxamide] has a pIC50 [1] of 6.02.

With `Cc1ncccc1NC(=O)c1cc(C(=O)c2c(F)cccc2Br)c[nH]1` [Example 149, 4-(2-Bromo-6-fluorobenzoyl)-N-(2-methylpyridin-3-yl)-1H-pyrrole-2-carboxamide] the pIC50 [1] was 5.62.

Work on `Cc1ccc(NC(=O)c2cc(C(=O)c3c(F)cccc3Cl)c[nH]2)cn1` [Example 150, 4-(2-Chloro-6-fluorobenzoyl)-N-(6-methylpyridin-3-yl)-1H-pyrrole-2-carboxamide] yielded a pIC50 [1] of 5.99.

`O=C(Nc1ccc(F)nc1)c1cc(C(=O)c2c(F)cccc2Cl)c[nH]1` [Example 152, 4-(2-Chloro-6-fluorobenzoyl)-N-(6-fluoropyridin-3-yl)-1H-pyrrole-2-carboxamide] gave a pIC50 [1] of 5.83.

`O=C(Nc1ccc(F)nc1)c1cc(C(=O)c2c(F)cccc2Br)c[nH]1` [Example 153, 4-(2-Bromo-6-fluorobenzoyl)-N-(6-fluoropyridin-3-yl)-1H-pyrrole-2-carboxamide] was tested, and the pIC50 [1] was 5.77.

In the case of `Cc1ncc(NC(=O)c2cc(C(=O)c3c(F)cccc3Br)c[nH]2)cn1` [Example 155, 4-(2-Bromo-6-fluorobenzoyl)-N-(2-methylpyrimidin-5-yl)-1H-pyrrole-2-carboxamide], the pIC50 [1] was 5.93.

`O=C(Nc1ccc2cn[nH]c2c1)c1cc(C(=O)c2c(F)cccc2Cl)c[nH]1` [Example 156, 4-(2-Chloro-6-fluorobenzoyl)-N-(1H-indazol-6-yl)-1H-pyrrole-2-carboxamide] was tested, and the pIC50 [1] was 5.81.

For `O=C(Nc1ccc2cn[nH]c2c1)c1cc(C(=O)c2c(F)cccc2Br)c[nH]1` [Example 157, 4-(2-Bromo-6-fluorobenzoyl)-N-(1H-indazol-6-yl)-1H-pyrrole-2-carboxamide], the pIC50 [1] was 5.15.

`O=C(Nc1ccncc1)c1cc(C(=O)c2cccc(Cl)c2Cl)c[nH]1` [Example 158, 4-(2,3-Dichlorobenzoyl)-N-(pyridin-4-yl)-1H-pyrrole-2-carboxamide] was tested, and the pIC50 [1] was 5.26.

In the case of `CCc1ccc(F)c(C(=O)c2c[nH]c(C(=O)Nc3cccnc3)c2)c1F` [Example 162], the pIC50 [1] was 5.88.
